# From PMC10247784, “Physiological activation of human and mouse bitter taste receptors by bile acids” (Communications Biology, 2023)
# “And” between values parts separate entries of the source, which are not always exact repeats. Equal entries are not always repeated.
# Target: T1, human TAS2R1 (Homo sapiens, UniProt Q9NYW7)
# T1 construct: expressed in transfected cells; host or cells: HEK293T-Gα16gust44
# T1 sequence (Q9NYW7 1-299): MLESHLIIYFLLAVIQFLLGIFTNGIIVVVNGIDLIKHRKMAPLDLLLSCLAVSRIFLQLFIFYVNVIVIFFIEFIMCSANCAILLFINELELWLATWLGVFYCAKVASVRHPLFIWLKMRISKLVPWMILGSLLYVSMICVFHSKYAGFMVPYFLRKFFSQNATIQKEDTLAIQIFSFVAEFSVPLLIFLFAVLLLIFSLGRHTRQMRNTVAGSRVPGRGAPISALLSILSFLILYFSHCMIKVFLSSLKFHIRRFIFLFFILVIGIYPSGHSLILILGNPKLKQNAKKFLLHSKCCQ
# Assay: Calcium imaging assay (FLIPR), HEK293T-Gα16gust44 cells transfected with human TAS2R1
# Assay type: cell-based
# Method in brief: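 Calcium responses via FLIPR in receptor-transfected HEK293T-Gα16gust44 cells (Fluo-4-AM, 2.5 mM probenecid), after mock-signal subtraction and normalization to baseline and buffer (ΔF/F). Threshold concentration is the lowest dose differing from mock cells at p < 0.01 (Student's t-test), from three biological replicates in duplicate.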
structure (smiles),measurement,setting,value
"C[C@H](CCC(=O)O)[C@H]1CC[C@H]2[C@@H]3CC[C@@H]4C[C@H](O)CC[C@]4(C)[C@H]3CC[C@]12C [Lithocholic Acid, lithocholic acid]",Efficacy = maximal amplitude (ΔF/F),"TAS2R1, bile acids, mean",0.1221
same,"Efficacy (maximal amplitude ΔF/F), individual data points","TAS2R1, bile acids, single replicates, listed as LCA",0.1505 and 0.1173 and 0.0984
same,RLU,Time 0 s,0 RLU
same,RLU,Time 2.015 s,-14.5951 RLU
same,RLU,Time 4.015 s,-7.128 RLU
same,RLU,Time 6.015 s,1.224 RLU
same,RLU,Time 8.015 s,0.3531 RLU
same,RLU,Time 12.015 s,-16.4638 RLU
same,RLU,Time 14.015 s,-4.132 RLU
same,RLU,Time 16.015 s,-20.8125 RLU
same,RLU,Time 18.015 s,1.1121 RLU
same,RLU,Time 18.796 s,25.7864 RLU
same,RLU,Time 20.796 s,69.0707 RLU
same,RLU,Time 22.796 s,111.584 RLU
same,RLU,Time 24.796 s,140.624 RLU
same,RLU,Time 26.796 s,217.83 RLU
same,RLU,Time 28.796 s,298.948 RLU
same,RLU,Time 30.796 s,381.71 RLU
same,RLU,Time 32.796 s,449.564 RLU
same,RLU,Time 34.796 s,475.411 RLU
same,RLU,Time 36.796 s,563.041 RLU
same,RLU,Time 38.796 s,583.488 RLU
same,RLU,Time 40.796 s,612.54 RLU
same,RLU,Time 42.796 s,644.654 RLU
same,RLU,Time 44.796 s,679.197 RLU
same,RLU,Time 46.796 s,695.288 RLU
same,RLU,Time 48.796 s,701.461 RLU
same,RLU,Time 50.796 s,756.471 RLU
same,RLU,Time 52.796 s,734.503 RLU
same,RLU,Time 54.796 s,776.344 RLU
same,RLU,Time 56.796 s,818.875 RLU
same,RLU,Time 58.796 s,815.634 RLU
same,RLU,Time 60.796 s,814.863 RLU
same,RLU,Time 62.796 s,815.671 RLU
same,RLU,Time 64.796 s,814.539 RLU
same,RLU,Time 66.796 s,840.236 RLU
same,RLU,Time 68.796 s,839.926 RLU
same,RLU,Time 70.796 s,857.451 RLU
same,RLU,Time 72.796 s,860.887 RLU
same,RLU,Time 74.796 s,876.325 RLU
same,RLU,Time 76.796 s,873.737 RLU
same,RLU,Time 78.796 s,889.618 RLU
same,RLU,Time 80.796 s,892.644 RLU
same,RLU,Time 82.796 s,897.83 RLU
same,RLU,Time 84.796 s,886.895 RLU
same,RLU,Time 86.796 s,870.09 RLU
same,RLU,Time 88.796 s,907.185 RLU
same,RLU,Time 90.796 s,877.458 RLU
same,RLU,Time 92.796 s,891.158 RLU
same,RLU,Time 94.796 s,920.191 RLU
same,RLU,Time 96.796 s,905.406 RLU
same,RLU,Time 98.796 s,898.952 RLU
same,RLU,Time 100.796 s,892.147 RLU
same,RLU,Time 102.796 s,894.991 RLU
same,RLU,Time 104.796 s,894.373 RLU
same,RLU,Time 106.796 s,867.268 RLU
same,RLU,Time 108.796 s,872.524 RLU
same,RLU,Time 110.796 s,857.451 RLU
same,RLU,Time 112.796 s,864.824 RLU
same,RLU,Time 114.796 s,846.501 RLU
same,RLU,Time 116.796 s,868.556 RLU
same,RLU,Time 118.796 s,842.814 RLU
same,RLU,Time 120.796 s,851.852 RLU
same,RLU,Time 122.796 s,861.523 RLU
same,RLU,Time 124.796 s,851.498 RLU
same,RLU,Time 126.796 s,820.705 RLU
same,RLU,Time 128.796 s,833.006 RLU
same,RLU,Time 130.796 s,811.797 RLU
same,RLU,Time 132.796 s,786.781 RLU
same,RLU,Time 134.796 s,809.512 RLU
same,RLU,Time 136.796 s,797.52 RLU
same,RLU,Time 137.562 s,816.516 RLU
same,RLU,Time 143.562 s,785.521 RLU
same,RLU,Time 149.562 s,770.713 RLU
same,RLU,Time 155.562 s,645 RLU
same,RLU,Time 161.562 s,650.189 RLU
same,RLU,Time 167.562 s,602.288 RLU
same,RLU,Time 173.562 s,588.477 RLU
same,RLU,Time 179.562 s,570.66 RLU
same,RLU,Time 185.562 s,562.77 RLU
same,RLU,Time 191.562 s,515.911 RLU
same,RLU,Time 197.562 s,487.382 RLU
same,RLU,Time 203.562 s,468.151 RLU
same,RLU,Time 209.562 s,433.685 RLU
same,RLU,Time 215.562 s,406.858 RLU
same,RLU,Time 221.562 s,386.034 RLU
same,RLU,Time 227.562 s,427.313 RLU
same,RLU,Time 233.562 s,409.48 RLU
same,RLU,Time 239.562 s,419.888 RLU
same,RLU,Time 245.562 s,384.802 RLU
same,RLU,Time 293.562 s,250.547 RLU
same,RLU,Time 299.562 s,240.784 RLU
same,RLU,"calcium trace, sheet TAS2R1, Time 305.562 s",255.305 RLU
same,RLU,"calcium trace, sheet TAS2R1, Time 311.562 s",251.175 RLU
same,RLU,"calcium trace, sheet TAS2R1, Time 317.562 s",242.237 RLU
same,RLU,"calcium trace, sheet TAS2R1, Time 323.562 s",237.346 RLU
same,RLU,"calcium trace, sheet TAS2R1, Time 329.562 s",210.072 RLU
same,RLU,"calcium trace, sheet TAS2R1, Time 335.562 s",207.541 RLU
same,RLU,"calcium trace, sheet TAS2R1, Time 341.562 s",224.802 RLU
same,RLU,"calcium trace, sheet TAS2R1, Time 347.562 s",199.834 RLU
same,RLU,"calcium trace, sheet TAS2R1, Time 353.562 s",189.761 RLU
same,RLU,"calcium trace, sheet TAS2R1, Time 359.562 s",182.753 RLU
same,Activation threshold concentration TAS2R1,lowest concentration with significantly increased fluorescence vs empty vector (p < 0.01),0.3 µM and 0.30 µM
